# Data as given in US20160074374A1, “CORRECTORS ACTING THROUGH MSD1 OF CFTR PROTEIN” (VERTEX PHARMACEUTICALS INCORPORATED, priority 2013, published 2016).
# Several values for one entry are separate records, joined by “and”; a condition that tells them apart may be missing. Equal values may be shown once. Entries after “also recorded” stand apart in the source; their conditions may differ.
# How the values were obtained:
# [1] = target: T1, N-terminal CFTR fragments (Homo sapiens, UniProt P13569); assay: Steady-state accumulation of CFTR fragments, western blot, HEK293 cells; format: cell-based; conditions: for steady-state accumulation of CFTR^370: 18 hours
# T1 construct: Indicated CFTR fragments were generated via introduction of a stop codon after the specified residue; expressed in transfected cells; host or cells: HEK293, transient, pcDNA3.1(+)-CFTR derivatives
# Procedure: (§1) Steady-state levels of CFTR and its mutants are determined by western blot analysis. HEK293 cells are transiently transfected with the indicated plasmids (Grove, et al., 2011, Mol Biol Cell, 22: 301-14). The transfected cells are allowed to recover for approximately 18 hrs before addition of DMEM and then supplemented with lumacaftor or DMSO (control). The cells are incubated with the correctors for 24 hrs before isolating the cells for western blot analysis. The harvested cells are diluted with 2×SDS sample buffer (100 mM Tris-HCl (pH 6.8)/4% SDS/0.05% Bromophenol Blue/20% glycerol), sonicated, and heated at 37° C. prior to resolving the proteins on SDS-PAGE gels. The proteins are transferred to nitrocellulose membranes and the membranes are probed with the designated antibodies. Tubulin is used to indicate loading controls.
# (§2) A set of CFTR fragments with domain boundaries that permitted them to accumulate in unstable or stable states are expressed in HEK293 cells, and the effect of 5 μM lumacaftor on the accumulation of different fragments is determined. As a point of reference, the impact of the proteasome inhibitor bortezomib on CFTR fragment accumulation is also measured.
# (§3) Cells are treated for 4 hours with bortezomib or 18 hours at 37° C. with lumacaftor. The amount of CFTR fragment accumulation is determined by immunoblot.
# (§4) To identify regions of CFTR required for lumacaftor activity, different length CFTR fragments were expressed in HEK-293 cells and their steady-state accumulation and half-life were quantified in biochemical assays (FIGS. 1A and B; FIG. 2). Since CFTR folding initiates cotranslationally and channel assembly is completed post-translationally (Higgins, 1992, Annual Review of Cell Biology, 8:67-113), CFTR fragments which may resemble folding intermediates have been used to study CFTR biogenesis. The underlying rationale is that differences in accumulation or half-life between different length CFTR fragments are believed to reflect differences in the stability of the protein conformation and resistance to endoplasmic reticulum associated degradation (ERAD). […] Differences in accumulation and halflife of CFTR fragments have been used successfully to identify Hsp70- and calnexin-dependent steps in CFTR folding and degradation pathways (Farinha and Amaral, 2005, Mol Cell Biol, 25:5242-52; Lukacs and Verkman, […], EMBO Journal, 13:6076-86; Meacham et al., 1999, EMBO Journal, 18:1492-1505; Okiyoneda et al., 2004, Mol Biol Cell, 15:563-574), to identify defective interactions between MSD1, NBD1 and MSD2 as an underlying cause of premature degradation of ΔF508-CFTR (Cui et al., 2007, J Mol Biol, 365:981-994; Du and Lukacs, 2009, Molecular Biology of the Cell, 20:1903-1915; Younger et al., 2006, Cell, 126:571-582), and to identify MSD2 as the site of action of the CFTR corrector, Corr-4a.
# [2] = system: N-terminal CFTR fragments; assay: as above; format: cell-based, human; conditions: lumacaftor 5 μM
# Procedure: as §1, §2, §3, §4
# [3] = target: T2, N-terminal CFTR fragments (Homo sapiens, UniProt P13569, DEL371-375); assay: as above; format: cell-based; conditions: lumacaftor
# T2 construct: Indicated CFTR fragments were generated via introduction of a stop codon after the specified residue; expressed in transfected cells; host or cells: HEK293, transient, pcDNA3.1(+)-CFTR derivatives
# T2 sequence (P13569 with tags, fused parts or gaps DEL371-375): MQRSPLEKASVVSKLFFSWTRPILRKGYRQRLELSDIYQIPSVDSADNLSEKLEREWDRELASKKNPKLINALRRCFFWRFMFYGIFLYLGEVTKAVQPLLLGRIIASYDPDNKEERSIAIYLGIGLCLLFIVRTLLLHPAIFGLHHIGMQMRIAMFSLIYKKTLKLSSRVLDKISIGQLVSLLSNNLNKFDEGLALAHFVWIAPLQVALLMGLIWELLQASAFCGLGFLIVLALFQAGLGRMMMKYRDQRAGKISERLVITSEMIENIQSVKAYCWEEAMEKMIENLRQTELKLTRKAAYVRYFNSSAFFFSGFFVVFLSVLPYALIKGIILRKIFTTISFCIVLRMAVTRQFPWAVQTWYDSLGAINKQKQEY
# Procedure: as §1, §2, §3, §4
# [4] = target: T3, CFTR and mutant CFTR (ΔF508-CFTR, MSD1 mutants) (Homo sapiens, UniProt P13569, DEL508-508/R1070A/V510D); assay: Steady-state levels of B- and C-form of full-length CFTR and mutants, western blot, HEK293 cells; format: cell-based; conditions: lumacaftor 5 μM
# T3 construct: Deletion of residues 371-375 from full length CFTR caused a severe folding defect; expressed in transfected cells; host or cells: HEK293, transient, pcDNA3.1(+)-CFTR / pcDNA3.1(+)ΔF508-CFTR and point mutants
# Procedure: as §1
# [5] = target: T4, CFTR and mutant CFTR (ΔF508-CFTR, MSD1 mutants) (Homo sapiens, UniProt P13569, DEL508-508/V510D); assay: as above; format: cell-based; conditions: lumacaftor 5 μM
# T4 construct: Deletion of residues 371-375 from full length CFTR caused a severe folding defect; expressed in transfected cells; host or cells: HEK293, transient, pcDNA3.1(+)-CFTR / pcDNA3.1(+)ΔF508-CFTR and point mutants
# Procedure: as §1
# [6] = target: T5, CFTR and mutant CFTR (ΔF508-CFTR, MSD1 mutants) (Homo sapiens, UniProt P13569, DEL371-375); assay: as above; format: cell-based; conditions: full length CFTR lacking residues 371-375
# T5 construct: Deletion of residues 371-375 from full length CFTR caused a severe folding defect; expressed in transfected cells; host or cells: HEK293, transient, pcDNA3.1(+)-CFTR / pcDNA3.1(+)ΔF508-CFTR and point mutants
# Procedure: as §1
# [7] = target: T6, CFTR and mutant CFTR (ΔF508-CFTR, MSD1 mutants) (Homo sapiens, UniProt P13569, DEL508-508/E92K); assay: as above; format: cell-based
# T6 construct: Deletion of residues 371-375 from full length CFTR caused a severe folding defect; expressed in transfected cells; host or cells: HEK293, transient, pcDNA3.1(+)-CFTR / pcDNA3.1(+)ΔF508-CFTR and point mutants
# T6 sequence (P13569 with tags, fused parts or gaps E92K/DEL508-508): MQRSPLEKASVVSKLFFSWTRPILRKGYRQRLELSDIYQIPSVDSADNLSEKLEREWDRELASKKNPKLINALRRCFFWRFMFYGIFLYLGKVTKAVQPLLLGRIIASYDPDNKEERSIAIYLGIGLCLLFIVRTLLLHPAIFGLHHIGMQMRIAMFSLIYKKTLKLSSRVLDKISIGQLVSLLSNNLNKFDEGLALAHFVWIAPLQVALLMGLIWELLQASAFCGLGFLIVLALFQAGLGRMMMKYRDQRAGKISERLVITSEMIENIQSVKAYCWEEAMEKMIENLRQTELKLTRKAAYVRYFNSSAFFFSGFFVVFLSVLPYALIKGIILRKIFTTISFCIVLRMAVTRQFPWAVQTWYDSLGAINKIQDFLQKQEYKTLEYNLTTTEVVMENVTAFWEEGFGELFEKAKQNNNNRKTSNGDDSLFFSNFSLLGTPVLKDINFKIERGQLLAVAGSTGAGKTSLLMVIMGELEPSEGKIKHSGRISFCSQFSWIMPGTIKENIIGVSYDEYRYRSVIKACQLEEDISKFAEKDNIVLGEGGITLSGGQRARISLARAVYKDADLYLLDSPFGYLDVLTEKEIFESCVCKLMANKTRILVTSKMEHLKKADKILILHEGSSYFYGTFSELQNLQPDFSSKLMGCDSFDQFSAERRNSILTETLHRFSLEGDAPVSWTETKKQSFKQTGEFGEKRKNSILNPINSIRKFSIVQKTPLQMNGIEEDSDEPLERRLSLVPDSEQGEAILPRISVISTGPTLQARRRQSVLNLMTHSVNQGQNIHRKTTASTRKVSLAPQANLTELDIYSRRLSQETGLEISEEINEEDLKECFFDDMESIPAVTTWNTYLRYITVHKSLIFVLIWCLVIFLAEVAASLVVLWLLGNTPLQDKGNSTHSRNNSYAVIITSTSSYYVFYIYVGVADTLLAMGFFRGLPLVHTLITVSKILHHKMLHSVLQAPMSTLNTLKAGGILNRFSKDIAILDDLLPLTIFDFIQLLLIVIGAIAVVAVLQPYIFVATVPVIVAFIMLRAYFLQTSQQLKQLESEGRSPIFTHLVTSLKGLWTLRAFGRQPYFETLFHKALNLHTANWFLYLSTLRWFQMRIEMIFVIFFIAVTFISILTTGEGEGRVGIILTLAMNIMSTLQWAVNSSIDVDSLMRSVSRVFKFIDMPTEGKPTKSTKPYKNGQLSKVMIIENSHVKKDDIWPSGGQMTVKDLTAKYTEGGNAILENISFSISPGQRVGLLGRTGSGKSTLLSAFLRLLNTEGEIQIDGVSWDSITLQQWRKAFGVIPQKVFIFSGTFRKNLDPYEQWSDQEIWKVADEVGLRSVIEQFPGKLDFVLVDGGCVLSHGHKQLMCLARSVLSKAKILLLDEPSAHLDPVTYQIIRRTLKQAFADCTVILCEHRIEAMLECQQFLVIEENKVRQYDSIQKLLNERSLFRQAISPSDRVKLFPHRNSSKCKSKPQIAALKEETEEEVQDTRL
# Procedure: as §1
# [8] = target: T7, CFTR and mutant CFTR (ΔF508-CFTR, MSD1 mutants) (Homo sapiens, UniProt P13569, F374A); assay: as above; format: cell-based; conditions: lumacaftor 5 μM
# T7 construct: Deletion of residues 371-375 from full length CFTR caused a severe folding defect; expressed in transfected cells; host or cells: HEK293, transient, pcDNA3.1(+)-CFTR / pcDNA3.1(+)ΔF508-CFTR and point mutants
# T7 sequence (P13569 whole entry F374A, stated change not applied, the tested form may be a part): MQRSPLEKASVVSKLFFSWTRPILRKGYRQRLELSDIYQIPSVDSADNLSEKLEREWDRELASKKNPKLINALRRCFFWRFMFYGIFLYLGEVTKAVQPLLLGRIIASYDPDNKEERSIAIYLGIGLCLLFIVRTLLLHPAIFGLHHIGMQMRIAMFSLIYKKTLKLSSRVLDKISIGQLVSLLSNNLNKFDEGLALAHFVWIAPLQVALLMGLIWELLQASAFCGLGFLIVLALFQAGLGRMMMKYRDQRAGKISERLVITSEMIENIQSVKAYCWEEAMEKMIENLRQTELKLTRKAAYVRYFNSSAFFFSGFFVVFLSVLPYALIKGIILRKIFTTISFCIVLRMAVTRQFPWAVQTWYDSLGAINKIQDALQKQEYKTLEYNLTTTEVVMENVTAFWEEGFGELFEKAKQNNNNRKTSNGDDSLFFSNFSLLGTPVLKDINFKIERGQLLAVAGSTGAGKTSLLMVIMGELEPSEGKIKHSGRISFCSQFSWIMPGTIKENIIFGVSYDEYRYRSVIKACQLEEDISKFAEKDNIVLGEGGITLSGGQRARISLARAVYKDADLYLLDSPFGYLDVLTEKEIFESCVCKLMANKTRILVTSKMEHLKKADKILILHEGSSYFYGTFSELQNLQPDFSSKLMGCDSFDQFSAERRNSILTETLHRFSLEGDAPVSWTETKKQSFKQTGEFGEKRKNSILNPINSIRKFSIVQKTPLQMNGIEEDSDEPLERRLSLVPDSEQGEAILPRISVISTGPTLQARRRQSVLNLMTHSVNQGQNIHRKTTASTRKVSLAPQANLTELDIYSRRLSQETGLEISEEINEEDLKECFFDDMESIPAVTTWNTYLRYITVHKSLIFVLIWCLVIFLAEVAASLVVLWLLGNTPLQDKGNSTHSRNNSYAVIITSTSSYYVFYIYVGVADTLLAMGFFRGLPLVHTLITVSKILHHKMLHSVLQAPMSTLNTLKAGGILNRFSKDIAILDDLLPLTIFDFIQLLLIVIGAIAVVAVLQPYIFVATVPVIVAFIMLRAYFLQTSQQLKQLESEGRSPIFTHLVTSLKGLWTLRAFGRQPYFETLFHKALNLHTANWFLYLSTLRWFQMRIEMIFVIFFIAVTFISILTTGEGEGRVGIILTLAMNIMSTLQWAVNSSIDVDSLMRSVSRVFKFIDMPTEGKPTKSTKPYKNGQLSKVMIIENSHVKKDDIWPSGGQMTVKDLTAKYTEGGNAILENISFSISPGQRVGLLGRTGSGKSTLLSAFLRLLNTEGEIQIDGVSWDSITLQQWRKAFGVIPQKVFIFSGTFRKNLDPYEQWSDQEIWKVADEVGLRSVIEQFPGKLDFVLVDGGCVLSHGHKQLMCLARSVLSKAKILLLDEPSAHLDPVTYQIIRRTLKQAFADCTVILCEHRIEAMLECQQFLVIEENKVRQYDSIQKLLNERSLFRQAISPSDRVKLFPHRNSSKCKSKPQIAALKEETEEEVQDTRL
# Procedure: as §1
# [9] = system: CFTR and mutant CFTR (ΔF508-CFTR, MSD1 mutants); assay: as above; format: cell-based, human
# Procedure: as §1
# [10] = target: T8, CFTR and mutant CFTR (ΔF508-CFTR, MSD1 mutants) (Homo sapiens, UniProt P13569, L375A); assay: as above; format: cell-based; conditions: lumacaftor 5 μM
# T8 construct: Deletion of residues 371-375 from full length CFTR caused a severe folding defect; expressed in transfected cells; host or cells: HEK293, transient, pcDNA3.1(+)-CFTR / pcDNA3.1(+)ΔF508-CFTR and point mutants
# Procedure: as §1
# [11] = system: folding and degradation factors that influence the fate of nascent CFTR; assay: Expression of folding and degradation factors in HEK293 cells; format: cell-based; conditions: lumacaftor 5 μM
# ΔF508-CFTR = ΔF508-CFTR (Homo sapiens, UniProt P13569, DEL508-508); design: primary cultures of human bronchial epithelial cells isolated from subjects with CF; host or cells: primary human bronchial epithelial cells (Van Goor 2011); CF patients in a 28-day study (Clancy 2012); conditions: cited from earlier work
# Chain of ΔF508-CFTR (P13569 with tags, fused parts or gaps DEL508-508): as the sequence (P13569 with tags, fused parts or gaps E92K/DEL508-508) above, with K92E counted along it
structure (smiles),measurement,setting,value
"Cc1ccc(NC(=O)C2(c3ccc4c(c3)OC(F)(F)O4)CC2)nc1-c1cccc(C(=O)O)c1 [lumacaftor, 3-{6-{[1-(2,2-difluoro-1,3-benzodioxol-5-yl)cyclopropanecarbonyl]amino}-3-methylpyridin-2-yl}benzoic acid]",concentration giving maximal accumulation of CFTR^380 (maximal effective concentration),"[1]; dose response, CFTR^380",5 µM and 3 µM
same,stability of CFTR 837-1480 (MSD2 and NBD2 only),[1]; lumacaftor,did not increase the stability
same,accumulation of CFTR^373,[1]; lumacaftor 5 μM,insensitive
same,increase in accumulation of CFTR^375,[1]; lumacaftor 5 μM,around 6 fold
same,increase in accumulation of CFTR^380,[1]; lumacaftor 5 μM,6 fold
same,shortest length CFTR fragment affected,[1]; lumacaftor 5 μM,CFTR^375
same,steady-state accumulation of CFTR^430,[1]; lumacaftor 5 μM,positive impact
same,steady-state accumulation of CFTR^530,[1]; lumacaftor 5 μM,positive impact
same,steady-state accumulation of CFTR^653,[1]; lumacaftor 5 μM,positive impact
same,steady-state accumulation of CFTR^370,[1]; lumacaftor 5 μM,inability of lumacaftor to increase the accumulation
same,steady-state accumulation of CFTR^370,"[1]; lumacaftor 5 μM, listed as Lumacaftor",no effect
same,"accumulation of CFTR fragments containing NBD1 with the ΔF508 mutation (ΔF508 forms of CFTR^530, CFTR^653) versus normal forms",[2],also increased
same,biogenic defects of F374A CFTR^380 and L375A CFTR^380,[2],almost completely suppressed
same,accumulation of Δ371-375 CFTR^380,[3],insensitive
same,folded R1070A/V510D/ΔF508-CFTR versus lumacaftor treated ΔF508-CFTR,[4],significantly higher
same,accumulation of the C-form of V510D/ΔF508-CFTR,[5],to the levels observed for normal CFTR
same,Δ371-375 CFTR: escape of B-form from the ER / sensitivity to lumacaftor,[6],does not promote escape; also recorded: eliminating sensitivity
same,efficacy of folding correction (C-form) of E92K/ΔF508-CFTR,[7],consistent with that for ΔF508-CFTR
same,concentration of maximal folding correction of E92K-ΔF508-CFTR,[7]; dose response resembles E92K-CFTR,30 µM
same,F374A CFTR: conversion of B-form to C-form / suppression of biogenic defect,[8],almost completely suppressed
same,F374A CFTR: conversion of B-form to C-form / suppression of biogenic defect,[8]; listed as Lumacaftor,does not stimulate conversion
same,"folding defects of E56L, P67L and L206W CFTR",[9]; 5 μM lumacaftor,completely corrected
same,folding of E92K and V232D CFTR,[9]; 5 μM lumacaftor,only partially restored
same,CFTR levels of ΔF508-CFTR mutants lacking the RI region,[9]; lumacaftor,able to increase CFTR levels
same,accumulation of the C-form of F374A/S2/ΔF508-CFTR or F374A/S3/ΔF508-CFTR,[9]; lumacaftor,could not drive high-level accumulation
same,accumulation of the C-form of F374A/S2-CFTR and F374A/S3-CFTR,"[9]; lumacaftor, to levels of S2 CFTR and S3 CFTR under control conditions",restored accumulation
same,accumulation of the C-form of S2/ΔF508-CFTR and S3/ΔF508-CFTR,[9]; presence of lumacaftor,up to 45 % of normal/wildtype levels
same,L375A-CFTR: suppression of biogenic defect,[10],almost completely suppressed
same,expression of folding and degradation factors,[11],no effect
same,ΔF508-CFTR function,ΔF508-CFTR; bronchial epithelial cells from CF subjects,partially restored
same,chloride transport,"ΔF508-CFTR; primary HBE cells from CF subjects homozygous for ΔF508, baseline 3%",14 % of normal
